Measured values from article PMC5218480 (PLoS ONE, 2017).

Test system: MV-4-11 cells
Assay: Gene expression microarray analysis (Affymetrix PrimeView) and GSEA
Type: cell-based, human
Design: RFU PODN (11730768_x_at) / Fold change /veh PODN (11730768_x_at) / RFU LINC00158 (11744669_a_at) / Fold change /veh LINC00158 (11744669_a_at) / RFU DUSP10 (11751237_a_at) / Fold change /veh DUSP10 (11751237_a_at) / RFU ID3 (11757404_x_at) / Fold change /veh ID3 (11757404_x_at) / RFU PLEKHG5 (11737974_s_at) / Fold change /veh PLEKHG5 (11737974_s_at) / RFU LRRC4B (11730491_at) / Fold change /veh LRRC4B (11730491_at) / RFU GIMAP4 (11747438_a_at) / Fold change /veh GIMAP4 (11747438_a_at) / RFU KRT8 (11758183_x_at) / Fold change /veh KRT8 (11758183_x_at) / RFU CNN1 (11734310_a_at) / Fold change /veh CNN1 (11734310_a_at) / RFU VPS37D (11726825_at) / Fold change /veh VPS37D (11726825_at) / RFU C10orf10 (11716522_x_at) / Fold change /veh C10orf10 (11716522_x_at) / RFU KIR2DL2 /// KIR2DL4 /// KIR2DL5A /// KIR2DL5B /// KIR2DS1 /// KIR2DS2 /// KIR2DS3 /// KIR2DS4 /// KIR3DL3 /// KIR3DL3 /// KIR3DS1 (11738374_at) / Fold change /veh KIR2DL2 /// KIR2DL4 /// KIR2DL5A /// KIR2DL5B /// KIR2DS1 /// KIR2DS2 /// KIR2DS3 /// KIR2DS4 /// KIR3DL3 /// KIR3DL3 /// KIR3DS1 (11738374_at) / RFU C1QL1 (11718748_at) / Fold change /veh C1QL1 (11718748_at) / RFU TMPRSS4 (11747572_a_at) / Fold change /veh TMPRSS4 (11747572_a_at) / RFU HAMP (11756126_x_at) / Fold change /veh HAMP (11756126_x_at) / RFU RNFT2 (11725882_a_at) / Fold change /veh RNFT2 (11725882_a_at) / RFU NR4A2 (11747474_a_at) / Fold change /veh NR4A2 (11747474_a_at) / RFU ABCC12 (11746883_a_at) / Fold change /veh ABCC12 (11746883_a_at) / RFU TMEM136 (11760407_x_at) / Fold change /veh TMEM136 (11760407_x_at) / RFU CLDN22 /// WWC2 (11732394_at) / Fold change /veh CLDN22 /// WWC2 (11732394_at) / RFU HLA-DPB1 (11760878_x_at) / Fold change /veh HLA-DPB1 (11760878_x_at) / RFU SPINT1 (11716480_a_at) / Fold change /veh SPINT1 (11716480_a_at) / RFU GAP43 (11754022_s_at) / Fold change /veh GAP43 (11754022_s_at) / RFU A4GNT (11735810_at) / Fold change /veh A4GNT (11735810_at) / RFU PRB3 (11715151_x_at) / Fold change /veh PRB3 (11715151_x_at) / RFU TUBB4B (11761932_at) / Fold change /veh TUBB4B (11761932_at) / RFU CAPN14 (11732068_a_at) / Fold change /veh CAPN14 (11732068_a_at) / RFU TMCC2 (11721928_a_at) / Fold change /veh TMCC2 (11721928_a_at) / RFU IRGQ (11745062_a_at) / Fold change /veh IRGQ (11745062_a_at) / RFU FAM174B (11720279_a_at) / Fold change /veh FAM174B (11720279_a_at) / RFU TMPRSS4 (11748680_a_at) / Fold change /veh TMPRSS4 (11748680_a_at) / RFU FAM212B (11763350_a_at) / Fold change /veh FAM212B (11763350_a_at) / RFU PLEKHG5 (11743358_a_at) / Fold change /veh PLEKHG5 (11743358_a_at) / RFU ZSCAN30 (11745921_a_at) / Fold change /veh ZSCAN30 (11745921_a_at) / RFU CMKLR1 (11741424_a_at) / Fold change /veh CMKLR1 (11741424_a_at) / RFU LOC101060620 /// MAPK8IP1 (11723275_at) / Fold change /veh LOC101060620 /// MAPK8IP1 (11723275_at) / RFU SPTSSB (11747773_x_at) / Fold change /veh SPTSSB (11747773_x_at) / RFU PRSS12 (11739890_at) / Fold change /veh PRSS12 (11739890_at) / RFU BIN1 (11741810_x_at) / Fold change /veh BIN1 (11741810_x_at) / RFU WNT11 (11732464_a_at) / Fold change /veh WNT11 (11732464_a_at) / RFU C10orf10 (11716521_a_at) / Fold change /veh C10orf10 (11716521_a_at) / RFU C5orf56 (11738089_at) / Fold change /veh C5orf56 (11738089_at) / RFU CYB561 (11721691_x_at) / Fold change /veh CYB561 (11721691_x_at) / RFU ANKRD19P (11752326_a_at) / Fold change /veh ANKRD19P (11752326_a_at) / RFU OR2T12 /// OR2T33 /// OR2T8 (11738714_s_at) / Fold change /veh OR2T12 /// OR2T33 /// OR2T8 (11738714_s_at) / RFU VCAN (11748164_a_at) / Fold change /veh VCAN (11748164_a_at) / RFU JSRP1 (11732532_at) / Fold change /veh JSRP1 (11732532_at) / RFU KRTAP10-11 (11738290_x_at) / Fold change /veh KRTAP10-11 (11738290_x_at) / RFU MYO3A (11730013_a_at) / Fold change /veh MYO3A (11730013_a_at) / RFU EBF3 (11725865_a_at) / Fold change /veh EBF3 (11725865_a_at) / RFU CAMK2N1 (11719241_x_at) / Fold change /veh CAMK2N1 (11719241_x_at) / RFU C5orf56 (11738088_a_at) / Fold change /veh C5orf56 (11738088_a_at) / RFU OLFML3 (11715873_a_at) / Fold change /veh OLFML3 (11715873_a_at) / RFU LOC100653217 /// NTM (11731650_a_at) / Fold change /veh LOC100653217 /// NTM (11731650_a_at) / RFU MAPK11 (11762145_a_at) / Fold change /veh MAPK11 (11762145_a_at) / RFU FIZ1 (11724087_x_at) / Fold change /veh FIZ1 (11724087_x_at) / RFU OASL (11726364_x_at) / Fold change /veh OASL (11726364_x_at) / RFU SOX15 (11748057_x_at) / Fold change /veh SOX15 (11748057_x_at) / RFU CD79A (11719716_a_at) / Fold change /veh CD79A (11719716_a_at) / RFU HIST1H1D (11736915_at) / Fold change /veh HIST1H1D (11736915_at) / RFU CASKIN2 (11723855_a_at) / Fold change /veh CASKIN2 (11723855_a_at) / RFU LOC730098 (11760151_x_at) / Fold change /veh LOC730098 (11760151_x_at) / RFU OR4N2 (11742367_at) / Fold change /veh OR4N2 (11742367_at) / RFU PRRT2 (11749266_a_at) / Fold change /veh PRRT2 (11749266_a_at) / RFU SNX32 (11753110_a_at) / Fold change /veh SNX32 (11753110_a_at) / RFU CDHR5 (11726645_a_at) / Fold change /veh CDHR5 (11726645_a_at) / RFU RCAN1 (11760418_a_at) / Fold change /veh RCAN1 (11760418_a_at) / RFU FAM167A (11723789_a_at) / Fold change /veh FAM167A (11723789_a_at) / RFU FAM26E (11764081_at) / Fold change /veh FAM26E (11764081_at) / RFU ISYNA1 (11749810_s_at) / Fold change /veh ISYNA1 (11749810_s_at) / RFU ACY1 (11761880_at) / Fold change /veh ACY1 (11761880_at) / RFU 11764098_at / Fold change /veh 11764098_at / RFU SAMD14 (11745864_x_at) / Fold change /veh SAMD14 (11745864_x_at) / RFU NPB (11741838_a_at) / Fold change /veh NPB (11741838_a_at) / RFU TMPRSS6 (11731388_a_at) / Fold change /veh TMPRSS6 (11731388_a_at) / RFU KRTAP10-2 (11738614_at) / Fold change /veh KRTAP10-2 (11738614_at) / RFU ARHGAP8 /// PRR5-ARHGAP8 (11727945_x_at) / Fold change /veh ARHGAP8 /// PRR5-ARHGAP8 (11727945_x_at) / RFU KRTAP5-7 /// NADSYN1 (11734609_at) / Fold change /veh KRTAP5-7 /// NADSYN1 (11734609_at) / RFU RASL12 (11751679_a_at) / Fold change /veh RASL12 (11751679_a_at) / RFU CDKN2B (11736163_a_at) / Fold change /veh CDKN2B (11736163_a_at) / RFU PRF1 (11729649_at) / Fold change /veh PRF1 (11729649_at) / RFU, ZNF638 /// ZNF638-IT1 / Fold change vs veh, ZNF638 /// ZNF638-IT1 / RFU, PANK3 / Fold change vs veh, PANK3 / RFU, SH3YL1 / Fold change vs veh, SH3YL1 / RFU, ZEB2 / Fold change vs veh, ZEB2 / RFU, NRIP1 / Fold change vs veh, NRIP1 / RFU, PTTG1IP / Fold change vs veh, PTTG1IP / RFU, CAPN2 / Fold change vs veh, CAPN2 / RFU, MED14 / Fold change vs veh, MED14 / RFU, SNORA58 / Fold change vs veh, SNORA58 / RFU, C1orf63 / Fold change vs veh, C1orf63 / RFU, LRRFIP1 / Fold change vs veh, LRRFIP1 / RFU, NDUFAF7 / Fold change vs veh, NDUFAF7 / RFU, SLC12A2 / Fold change vs veh, SLC12A2 / RFU, IBTK / Fold change vs veh, IBTK / RFU, ESF1 / Fold change vs veh, ESF1 / Fold change vs veh, TMEM50B / RFU, TAOK1 / Fold change vs veh, TAOK1 / RFU, ACBD3 / Fold change vs veh, ACBD3 / RFU, TMA16 / Fold change vs veh, TMA16 / RFU, RWDD3 / Fold change vs veh, RWDD3 / RFU, BCAT1 / Fold change vs veh, BCAT1 / RFU, EDEM3 / Fold change vs veh, EDEM3 / RFU, TMEM33 / Fold change vs veh, TMEM33 / RFU, WDR75 / Fold change vs veh, WDR75 / RFU, AHCTF1 / Fold change vs veh, AHCTF1 / RFU, TFRC / Fold change vs veh, TFRC / RFU, ZDHHC17 / Fold change vs veh, ZDHHC17 / RFU, NOM1 / Fold change vs veh, NOM1 / RFU, ARL8B / Fold change vs veh, ARL8B / RFU, ZBTB11 / Fold change vs veh, ZBTB11 / RFU, TAMM41 / Fold change vs veh, TAMM41 / RFU, KIAA1704 /// LOC100996395 / Fold change vs veh, KIAA1704 /// LOC100996395 / RFU, ING1 / Fold change vs veh, ING1 / RFU, TRMT61B / Fold change vs veh, TRMT61B / RFU, FUBP3 / Fold change vs veh, FUBP3 / RFU, TP53 / Fold change vs veh, TP53 / RFU, TNKS2 / Fold change vs veh, TNKS2 / RFU, ZFP14 / Fold change vs veh, ZFP14 / RFU, ACTR2 / Fold change vs veh, ACTR2 / RFU, PPP3R1 / Fold change vs veh, PPP3R1 / RFU, PIK3R1 / Fold change vs veh, PIK3R1 / RFU, HNRNPA1 / Fold change vs veh, HNRNPA1 / RFU, RNF170 / Fold change vs veh, RNF170 / RFU, ZNF28 / Fold change vs veh, ZNF28 / RFU, RNGTT / Fold change vs veh, RNGTT / RFU, OGT / Fold change vs veh, OGT / RFU, BRD1 / Fold change vs veh, BRD1 / RFU, MARS / Fold change vs veh, MARS / RFU, ZNF655 / Fold change vs veh, ZNF655 / RFU, FAHD1 / Fold change vs veh, FAHD1 / RFU, BDP1 / Fold change vs veh, BDP1 / RFU, LRRCC1 / Fold change vs veh, LRRCC1 / RFU, ARID1A / Fold change vs veh, ARID1A / RFU, ZNF146 / Fold change vs veh, ZNF146 / RFU, ZNF330 / Fold change vs veh, ZNF330 / RFU, GPN3 / Fold change vs veh, GPN3 / RFU, C9orf123 / Fold change vs veh, C9orf123 / RFU, N4BP2L2 / Fold change vs veh, N4BP2L2 / RFU, ARFIP1 / Fold change vs veh, ARFIP1 / RFU, FAM179B / Fold change vs veh, FAM179B / RFU, BCL10 / Fold change vs veh, BCL10 / RFU, UHRF1BP1L / Fold change vs veh, UHRF1BP1L / RFU, BET1 / Fold change vs veh, BET1 / RFU, CNOT2 / Fold change vs veh, CNOT2 / RFU, ZNF268 / Fold change vs veh, ZNF268 / Fold change vs veh, ZNF507 / RFU, DGCR2 / Fold change vs veh, DGCR2 / RFU, WDSUB1 / Fold change vs veh, WDSUB1 / Fold change vs veh, HSP90B1 /// MIR3652 / RFU, ADSS / Fold change vs veh, ADSS / RFU, GK / Fold change vs veh, GK / RFU, ZNF148 / Fold change vs veh, ZNF148 / RFU, TAF9 / Fold change vs veh, TAF9 / RFU, SLC1A5 / Fold change vs veh, SLC1A5 / RFU, SLMO2 / Fold change vs veh, SLMO2 / RFU, ABCC4 / Fold change vs veh, ABCC4 / RFU, LOC101060439 /// RAP1B / Fold change vs veh, LOC101060439 /// RAP1B / RFU, RFX7 / Fold change vs veh, RFX7 / RFU, GTPBP10 / Fold change vs veh, GTPBP10 / RFU, CNEP1R1 / Fold change vs veh, CNEP1R1 / RFU, BIVM-ERCC5 /// ERCC5 / Fold change vs veh, BIVM-ERCC5 /// ERCC5 / RFU, ILF3 / Fold change vs veh, ILF3 / RFU 11762660_at / Fold change /veh 11762660_at / RFU VCAN (11757783_s_at) / Fold change /veh VCAN (11757783_s_at) / RFU DDX43 (11728927_at) / Fold change /veh DDX43 (11728927_at) / RFU KRT8 (11758188_x_at) / Fold change /veh KRT8 (11758188_x_at) / RFU NKD1 (11759106_at) / Fold change /veh NKD1 (11759106_at) / RFU SRD5A1 (11742802_a_at) / Fold change /veh SRD5A1 (11742802_a_at) / RFU TPSAB1 /// TPSB2 (11721975_s_at) / Fold change /veh TPSAB1 /// TPSB2 (11721975_s_at) / RFU GSTM3 (11746129_a_at) / Fold change /veh GSTM3 (11746129_a_at) / RFU IL23R (11737362_x_at) / Fold change /veh IL23R (11737362_x_at) / RFU TMEM51 (11727254_a_at) / Fold change /veh TMEM51 (11727254_a_at) / RFU PIWIL2 (11732686_x_at) / Fold change /veh PIWIL2 (11732686_x_at) / RFU ORM1 (11744905_x_at) / Fold change /veh ORM1 (11744905_x_at) / RFU CCDC152 (11743942_at) / Fold change /veh CCDC152 (11743942_at) / RFU ECM1 (11717891_a_at) / Fold change /veh ECM1 (11717891_a_at) / RFU IL23R (11748794_a_at) / Fold change /veh IL23R (11748794_a_at) / RFU TNFAIP8L3 (11732012_x_at) / Fold change /veh TNFAIP8L3 (11732012_x_at) / RFU MBOAT4 (11741988_at) / Fold change /veh MBOAT4 (11741988_at) / RFU 11764193_at / Fold change /veh 11764193_at / RFU TMEM53 (11763286_at) / Fold change /veh TMEM53 (11763286_at) / RFU MAGEB2 (11727129_at) / Fold change /veh MAGEB2 (11727129_at) / RFU TMEM200A (11744735_a_at) / Fold change /veh TMEM200A (11744735_a_at) / RFU CCDC152 (11751479_a_at) / Fold change /veh CCDC152 (11751479_a_at) / RFU FAM211A (11726209_a_at) / Fold change /veh FAM211A (11726209_a_at) / RFU RGS16 (11746705_a_at) / Fold change /veh RGS16 (11746705_a_at) / RFU VCAN (11755009_s_at) / Fold change /veh VCAN (11755009_s_at) / RFU RHOB (11743442_s_at) / Fold change /veh RHOB (11743442_s_at) / RFU RGS16 (11720943_a_at) / Fold change /veh RGS16 (11720943_a_at) / RFU RGS16 (11720944_at) / Fold change /veh RGS16 (11720944_at) / RFU, VPS4B / Fold change vs veh, VPS4B / RFU, CREB1 / Fold change vs veh, CREB1 / RFU, DNAJC13 / Fold change vs veh, DNAJC13 / RFU, GNAQ / Fold change vs veh, GNAQ / RFU, CDK5R1 / Fold change vs veh, CDK5R1 / RFU, ZRANB3 / Fold change vs veh, ZRANB3 / RFU, CUL4A / Fold change vs veh, CUL4A / RFU, CCNY / Fold change vs veh, CCNY / RFU, UFL1 / Fold change vs veh, UFL1 / RFU, COG3 / Fold change vs veh, COG3 / RFU, DIAPH2 / Fold change vs veh, DIAPH2 / RFU, SKA2 / Fold change vs veh, SKA2 / RFU, AFF3 / Fold change vs veh, AFF3 / RFU, LMF1 / Fold change vs veh, LMF1 / RFU, IPO11 / Fold change vs veh, IPO11 / RFU, DFFB / Fold change vs veh, DFFB / RFU, FOXP1 / Fold change vs veh, FOXP1 / RFU, CARD8 / Fold change vs veh, CARD8 / RFU, STRN3 / Fold change vs veh, STRN3 / RFU, ADK / Fold change vs veh, ADK / RFU, RASSF2 / Fold change vs veh, RASSF2 / RFU, WIPF1 / Fold change vs veh, WIPF1 / RFU, LARP1B / Fold change vs veh, LARP1B / RFU, RASA1 / Fold change vs veh, RASA1 / RFU, RB1 / Fold change vs veh, RB1 / RFU, PPFIA1 / Fold change vs veh, PPFIA1 / RFU, MAT2A / Fold change vs veh, MAT2A / RFU, CCT5 / Fold change vs veh, CCT5 / RFU, WDR92 / Fold change vs veh, WDR92 / RFU, CUX1 / Fold change vs veh, CUX1 / RFU, TTC7A / Fold change vs veh, TTC7A / RFU, TMEM135 / Fold change vs veh, TMEM135 / RFU, DEPTOR / Fold change vs veh, DEPTOR / RFU, CPM / Fold change vs veh, CPM / RFU, DNAJB6 / Fold change vs veh, DNAJB6 / RFU, CACNA2D3 / Fold change vs veh, CACNA2D3 / RFU, DTX4 / Fold change vs veh, DTX4 / RFU, TFCP2 / Fold change vs veh, TFCP2 / RFU, GMCL1 /// GMCL1P1 / Fold change vs veh, GMCL1 /// GMCL1P1 / RFU, AEBP2 / Fold change vs veh, AEBP2 / RFU, SNHG1 /// SNORD22 /// SNORD25 /// SNORD26 /// SNORD27 /// SNORD28 /// SNORD29 /// SNORD31 / Fold change vs veh, SNHG1 /// SNORD22 /// SNORD25 /// SNORD26 /// SNORD27 /// SNORD28 /// SNORD29 /// SNORD31 / Fold change (Aza/veh), C12orf56 (ProbeSet 11735607_a_at) / Fold change (ACY-1035/veh), C12orf56 (ProbeSet 11735607_a_at) / Fold change (Aza/veh), FGFR1OP (ProbeSet 11751329_s_at) / Fold change (ACY-1035/veh), FGFR1OP (ProbeSet 11751329_s_at) / Fold change (Aza/veh), VPS36 (ProbeSet 11739960_a_at) / Fold change (ACY-1035/veh), VPS36 (ProbeSet 11739960_a_at) / RFU SYPL1 (11715823_x_at) / Fold change /veh SYPL1 (11715823_x_at) / RFU IGFBP7 (11715501_s_at) / Fold change /veh IGFBP7 (11715501_s_at) / RFU REEP3 (11722064_at) / Fold change /veh REEP3 (11722064_at) / RFU IGLL1 (11728026_x_at) / Fold change /veh IGLL1 (11728026_x_at): dose or concentration left out as unconfirmed
Settings: MV-4-11 cells, 48 hours

Nc1ccc(-c2cccs2)cc1NC(=O)c1ccc2c(c1)cc(C1CC1)n2CCN1CCOCC1 [ACY-1035]
Fold change /veh CAMK2N1 (11719241_x_at): 0.84
